For 1 molecule, IC50 results are on record in doi:10.1101/2022.10.08.511406v1 (biorxiv, 2022).

The assay concerns the target T1, YTH domain of YTHDF1 (Homo sapiens, UniProt Q9BYJ9).
T1 sequence (Q9BYJ9 361-559): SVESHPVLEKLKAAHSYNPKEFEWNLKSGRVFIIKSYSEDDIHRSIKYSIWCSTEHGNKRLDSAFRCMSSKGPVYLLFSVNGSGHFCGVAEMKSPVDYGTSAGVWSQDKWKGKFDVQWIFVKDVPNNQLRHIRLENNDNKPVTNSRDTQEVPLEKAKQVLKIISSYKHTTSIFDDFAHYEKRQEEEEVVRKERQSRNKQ
The assay is described as follows: SPR competition. In kind it is binding.

In the case of `CCCCCNC(=N)N/N=C/c1c[nH]c2ccc(OC)cc12` [tegaserod], the IC50 came out at 13.8 µM.

In general, IC50 refers to the concentration that gives 50% inhibition. Low readings indicate higher potency, high ones lower potency.
